# Laboratory results: US9221800B2, “Isoxazole treatments for diabetes” (The Board of Regents of the University of Texas System, priority 2011, dated 2015)
# What was measured:
# [1] = tested on: human islets; test: Immunohistochemical staining of cultured human islets; format: cell-based; details: islets in culture for 2 months, Isx for 2 days (FIG. 1E)
# Experimental: (§1) FIGS. 1A-E. Isx (LSH-1) induces expression of insulin and transcription factors in primary cultured human islets. (FIG. 1A) Primary human islets that had been cultured in RPMI 160 for 6 months were treated with vehicle or 40 μM Isx for 1 or 2 d. Expression of human insulin and glucagon genes was assessed by Taqman quantitative RT-PCR. (FIG. 1B) Insulin secretion measured by ELISA over 24 h from islets treated with Isx or vehicle for 1 or 2 d. (FIG. 1C) Total insulin content of islets cultured for 3 mo and fresh islets, each treated for 48 h with Isx or DMSO. (FIG. 1D) Time course of pancreatic gene induction in islets cultured for 1 year treated with DMSO (8 days) or 40 μM Isx for 2, 4 or 8 days. (FIG. 1E) Immunohistochemical staining using antibodies against insulin, BETA2, Neurogenin3 (Ngn3) and MafA of islets cultured for 2 months and treated with Isx or vehicle for 48 h. Nuclei were stained with DAPI.
# [2] = tested on: human islets; test: Insulin secretion and insulin content (ELISA) of cultured human islets; format: cell-based
# Experimental: as §1
# FIGS. 5A-E. Gene expression induced by Isx (LSH-1) in human islet cultures. (FIG. 5A) Structure of the lead compound N-cyclopropyl-5-(thiophen-2-yl)isoxazole-3-carboxamide (Isx) used in this study. (FIG. 5B) Expression profiles of relevant islet factors by Sybr-Green qPCR analyses from human islets cultured for 1 year as in FIG. 1D. (FIG. 5C) Insulin immunohistochemical staining in human islets cultured for 2 months. Nuclei are stained with DAPI. (FIG. 5D) Immunoblotting of whole cell extracts from human islets cultured for six months treated with vehicle (DMSO) or Isx for 24 h. (FIG. 5E) Human islets cultured for 6 months were treated with DMSO (Veh) or Isx for 48 h. To implicate signaling pathways that are required for the isoxazole-driven increase in β cell function, measured as GSIS, the isoxazole-treated islets were also treated with vehicle (Veh), 10 μM U0126 (U), 10 μM Nifedipine-BAPTA (N-B), or 0.1 μM wortmannin (W) for the duration of the isoxazole treatment.
# MIN6 cells were cultured in DMEM (Gibco), containing 25 mM glucose, 10% fetal bovine serum, 10 mM Hepes pH 7.4, 10.2 mM L-glutamine, […] sodium pyruvate, 2.5 mM β-mercaptoethanol, 100 U/ml penicillin and 100 μg/ml streptomycin at 37° C. in 10% CO2. Human islets were obtained from the ICR Basic Science Islet Distribution and from the University of Alabama, Birmingham Islet Resource Facility and were cultured in RPMI 1640 with 11 mM glucose for up to 1 year. The medium was changed twice weekly and the islets were subcultured when they reached 90% confluence. For Isx treatments, cells were incubated in medium containing either Isx or the equivalent volume of DMSO vehicle (0.04%). […]
smiles,measurement,setting,value
"O=C(NC1CC1)c1cc(-c2cccs2)on1 [Isx, N-cyclopropyl-5-(thiophen-2-yl)isoxazole-3-carboxamide]","Ngn3, BETA2, and insulin immunostaining",[1],obvious increase
same,increase of insulin content of fresh islets,[2]; 2-day exposure to Isx,~25%
same,Insulin content relative to the insulin content of islets isolated only 1 week earlier,[2]; 3 month-old islets treated with Isx (FIG. 1C),~75%
same,Insulin content increase,"[2]; 3 month-old islets, Isx 48 h (FIG. 1C)",~10 fold
same,Insulin secreted over a 24-h period,"[2]; human islets in culture for 6 months, Isx 1 or 2 d (FIG. 1B)",markedly increased
